Consider ten compounds from PubChem BioAssay (NCI).

Some test systems named below: NCI-H226 lung; OVCAR-4 ovarian; SK-MEL-28 melanoma; MOLT-4 leukemia; NCI-H23 lung; RXF 393 renal; IGROV1 ovarian; SK-OV-3 ovarian; HCT-15 colon; MCF7 breast; NCI/ADR-RES ovarian; KM12 colon; RPMI-8226 leukemia; A498 renal; CAKI-1 renal; COLO 205 colon; MDA-MB-231 breast; MALME-3M melanoma.
Assay in all cases: growth of human tumour cells (NCI), 48 h

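All cell lines were grown in 96-well plates and treated with compound for 48 hours. TGI: concentration producing complete growth inhibition.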 Where only a bound is given, the exact number is not on record here.

Regarding `CCOc1ccc(/C=C2\N=C(c3ccccc3)OC2=O)cc1`, the TGI in the test with NCI-H226 lung, in the test on OVCAR-4 ovarian, with SK-MEL-28 melanoma, in the test on MOLT-4 leukemia, with NCI-H23 lung and with RXF 393 renal was more than 100 µM in each case. In addition, the TGI in the test with IGROV1 ovarian, with SK-OV-3 ovarian, in the test with HCT-15 colon, in the test on MCF7 breast, in the test with NCI/ADR-RES ovarian and in the test on KM12 colon was more than 100 µM each time. Besides, in the test on RPMI-8226 leukemia, the TGI is more than 100 µM.
For `O=C1CSCC(=O)Nc2ccccc2N1`, the TGI with NCI-H226 lung, with OVCAR-4 ovarian, in the test on SK-MEL-28 melanoma, in the test with MOLT-4 leukemia, in the test on A498 renal and in the test on NCI-H23 lung was more than 100 µM in each case. The TGI with RXF 393 renal, with IGROV1 ovarian, with SK-OV-3 ovarian, in the test with CAKI-1 renal, in the test with COLO 205 colon and in the test with HCT-15 colon was more than 100 µM throughout. Besides, the TGI in the test with NCI/ADR-RES ovarian, in the test with MDA-MB-231 breast, in the test with MALME-3M melanoma, in the test with KM12 colon and with RPMI-8226 leukemia was more than 100 µM in each case.
Take `N#CC(C#N)=c1c(=O)c2c3ccccc3cc3cccc1c32`: the TGI with NCI-H226 lung, with OVCAR-4 ovarian, in the test with SK-MEL-28 melanoma, in the test on MOLT-4 leukemia, in the test on A498 renal and in the test on NCI-H23 lung was more than 100 µM in each case. Besides, the TGI with IGROV1 ovarian, with SK-OV-3 ovarian, in the test on CAKI-1 renal, in the test with COLO 205 colon, in the test on HCT-15 colon and in the test with NCI/ADR-RES ovarian was more than 100 µM each time. Besides, the TGI with MDA-MB-231 breast, with KM12 colon and in the test on RPMI-8226 leukemia was more than 100 µM throughout.
For the compound `C=C=C[P+](c1ccccc1)(c1ccccc1)c1ccccc1`, the TGI with OVCAR-4 ovarian was more than 100 µM; in the test with SK-MEL-28 melanoma, 77.7 µM; in the test on MOLT-4 leukemia, 16.2 µM; in the test with A498 renal, more than 100 µM; in the test with IGROV1 ovarian, more than 100 µM; in the test with SK-OV-3 ovarian, more than 100 µM. In addition, the TGI in the test with COLO 205 colon is 10.3 µM; in the test on HCT-15 colon, 73.8 µM; in the test on MALME-3M melanoma, 26.7 µM; with KM12 colon, 28.2 µM; in the test with RPMI-8226 leukemia, 6.37 µM.
As to `O=C(O)CN1CCSc2ccccc2CN(CC(=O)O)CCSc2ccccc2C1`, the TGI in the test with SK-MEL-28 melanoma, in the test with A498 renal, in the test on NCI-H23 lung, with IGROV1 ovarian, with SK-OV-3 ovarian and in the test on CAKI-1 renal was more than 100 µM each time. Further, the TGI in the test on COLO 205 colon, in the test on HCT-15 colon, in the test on MALME-3M melanoma, with KM12 colon and in the test on RPMI-8226 leukemia was more than 100 µM throughout.
`NC(N)=N/N=C\c1c(-c2cccc([N+](=O)[O-])c2)nc2sccn12`: the TGI in the test on OVCAR-4 ovarian came to 3.78 µM; in the test on SK-MEL-28 melanoma, 4.37 µM; in the test with MOLT-4 leukemia, 5 µM; in the test on A498 renal it was 64.1 µM; in the test on NCI-H23 lung, 32.1 µM; in the test with RXF 393 renal, 5.8 µM. Further, the TGI with IGROV1 ovarian was 33.6 µM; in the test with CAKI-1 renal it was 45.3 µM; in the test with COLO 205 colon, 14.5 µM; in the test with HCT-15 colon it was more than 100 µM; in the test with NCI/ADR-RES ovarian, more than 100 µM; with MDA-MB-231 breast it was 5.01 µM. The TGI in the test on MALME-3M melanoma was 51.4 µM; with KM12 colon, 3.66 µM; in the test on RPMI-8226 leukemia it was more than 100 µM.
`CN1C2CCC1/C(=C/c1cccc3c1OCO3)C(=O)/C2=C\c1cccc2c1OCO2`: the TGI was more than 100 µM with NCI-H226 lung; more than 100 µM with SK-MEL-28 melanoma; more than 100 µM in the test with MOLT-4 leukemia; more than 100 µM in the test on NCI-H23 lung; 68 µM with RXF 393 renal; more than 100 µM in the test with IGROV1 ovarian. Besides, the TGI in the test on SK-OV-3 ovarian, in the test on COLO 205 colon, in the test with HCT-15 colon, with MALME-3M melanoma, in the test on KM12 colon and with RPMI-8226 leukemia was more than 100 µM throughout.
For `C=C(Br)C(C)(Cl)CCC(Br)C(C)(C)Br` (configuration not stated), the TGI in the test with NCI-H226 lung was more than 100 µM; with OVCAR-4 ovarian, more than 100 µM; in the test on MOLT-4 leukemia it was 83.1 µM; in the test with NCI-H23 lung, more than 100 µM; in the test on RXF 393 renal, more than 100 µM; in the test with IGROV1 ovarian it was more than 100 µM. Moreover, the TGI in the test with SK-OV-3 ovarian, in the test on CAKI-1 renal, in the test on COLO 205 colon, with HCT-15 colon, in the test with MALME-3M melanoma and in the test with KM12 colon was more than 100 µM throughout. In the test with RPMI-8226 leukemia, the TGI came to 67 µM.
Turning to `CCOC(=O)CC1=N/C(=N/C(=N)N[N+](=O)[O-])SC1`, the TGI in the test on NCI-H226 lung, in the test on OVCAR-4 ovarian, with SK-MEL-28 melanoma, in the test with A498 renal, in the test on NCI-H23 lung and in the test with RXF 393 renal was more than 100 µM in each case. For the same compound, the TGI in the test with IGROV1 ovarian, in the test with SK-OV-3 ovarian, with CAKI-1 renal, with COLO 205 colon, in the test on HCT-15 colon and in the test on MALME-3M melanoma was more than 100 µM each time. The TGI in the test on KM12 colon was more than 100 µM.
Regarding `COc1cccc2c1C(=O)c1c(O)c3c(c(O)c1C2=O)C[C@@](O)(C(=O)CO)CC3OC1CC(N(C)CCOCC(OC(C)=O)OC(C)=O)C(O)C(C)O1` (some centres not stated), the TGI with NCI-H226 lung, in the test on OVCAR-4 ovarian, with SK-MEL-28 melanoma, in the test with MOLT-4 leukemia, in the test with NCI-H23 lung and in the test with RXF 393 renal was more than 0.01 µM in each case. For the same compound, the TGI in the test on IGROV1 ovarian, in the test on SK-OV-3 ovarian, in the test with CAKI-1 renal, in the test on MALME-3M melanoma, in the test with KM12 colon and in the test with RPMI-8226 leukemia was more than 0.01 µM in each case.
